From ChEMBL document CHEMBL1201862, “PubChem BioAssay data set” (2004)
Active and inactive are the calls of the source.

Experiments:
[1] = biological target: T1, Caspase-3 (Homo sapiens, UniProt P42574); assay: inhibition of recombinant caspase-3 activity – biochemical, luminescence, set 2, selectivity assay for SENP protease inhibitor project, SAR follow-up (AID 588599); type: functional
T1 sequence (P42574 whole entry): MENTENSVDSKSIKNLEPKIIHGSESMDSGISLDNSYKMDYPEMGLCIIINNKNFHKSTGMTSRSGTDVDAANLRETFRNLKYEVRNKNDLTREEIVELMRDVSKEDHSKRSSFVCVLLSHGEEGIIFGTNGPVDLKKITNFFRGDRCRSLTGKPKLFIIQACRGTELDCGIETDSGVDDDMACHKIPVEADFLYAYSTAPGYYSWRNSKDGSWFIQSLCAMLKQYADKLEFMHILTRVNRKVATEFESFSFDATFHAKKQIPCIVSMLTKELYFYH

[2] = biological target: T2, Sentrin-specific protease 6 (Homo sapiens, UniProt Q9GZR1); assay: inhibition of human SENP6 catalytic domain – biochemical, luminescence, set 2, SAR follow-up (AID 588598); type: functional
T2 sequence (Q9GZR1 whole entry): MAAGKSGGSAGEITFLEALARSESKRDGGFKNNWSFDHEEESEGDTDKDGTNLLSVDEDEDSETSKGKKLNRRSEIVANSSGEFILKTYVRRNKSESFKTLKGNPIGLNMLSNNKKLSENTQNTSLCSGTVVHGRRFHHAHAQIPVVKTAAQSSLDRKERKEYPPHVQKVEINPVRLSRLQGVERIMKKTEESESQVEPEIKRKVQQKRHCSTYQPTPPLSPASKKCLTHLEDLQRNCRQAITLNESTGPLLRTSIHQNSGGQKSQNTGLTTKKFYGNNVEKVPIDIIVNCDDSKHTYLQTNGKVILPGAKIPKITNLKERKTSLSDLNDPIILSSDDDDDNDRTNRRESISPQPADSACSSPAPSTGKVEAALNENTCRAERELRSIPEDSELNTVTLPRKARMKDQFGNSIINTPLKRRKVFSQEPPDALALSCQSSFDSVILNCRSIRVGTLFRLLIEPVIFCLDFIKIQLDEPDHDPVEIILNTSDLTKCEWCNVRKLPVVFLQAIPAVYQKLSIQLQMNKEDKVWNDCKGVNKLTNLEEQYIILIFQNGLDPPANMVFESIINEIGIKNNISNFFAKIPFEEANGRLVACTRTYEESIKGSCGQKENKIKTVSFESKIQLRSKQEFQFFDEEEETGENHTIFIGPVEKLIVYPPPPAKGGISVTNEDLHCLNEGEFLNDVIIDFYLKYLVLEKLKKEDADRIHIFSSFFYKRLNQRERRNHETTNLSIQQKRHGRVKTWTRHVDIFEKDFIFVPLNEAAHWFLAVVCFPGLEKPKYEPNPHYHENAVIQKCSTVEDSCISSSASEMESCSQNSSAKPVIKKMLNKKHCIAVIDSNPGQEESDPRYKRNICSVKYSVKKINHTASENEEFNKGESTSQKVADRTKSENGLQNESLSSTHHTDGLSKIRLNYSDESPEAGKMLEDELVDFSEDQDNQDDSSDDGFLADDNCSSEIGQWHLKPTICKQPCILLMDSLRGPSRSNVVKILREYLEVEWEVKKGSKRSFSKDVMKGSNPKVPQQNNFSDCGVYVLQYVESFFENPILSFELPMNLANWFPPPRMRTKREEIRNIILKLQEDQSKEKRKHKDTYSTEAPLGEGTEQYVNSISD

[3] = biological target: T3, Sentrin-specific protease 8 (Homo sapiens, UniProt Q96LD8); assay: inhibition of human SENP8 cleavage activity – biochemical, luminescence, SAR follow-up (AID 504501); type: functional
T3 sequence (Q96LD8 whole entry): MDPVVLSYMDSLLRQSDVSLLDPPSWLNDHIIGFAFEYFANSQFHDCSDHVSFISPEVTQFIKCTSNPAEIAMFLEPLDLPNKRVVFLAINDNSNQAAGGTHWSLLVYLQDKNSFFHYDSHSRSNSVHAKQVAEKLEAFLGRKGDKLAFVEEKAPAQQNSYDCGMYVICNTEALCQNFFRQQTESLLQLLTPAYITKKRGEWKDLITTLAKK

[4] = biological target: T4, Sentrin-specific protease 7 (Homo sapiens, UniProt Q9BQF6); assay: inhibition of human SENP7 cleavage activity – biochemical, luminescence, set 2, SAR follow-up (AID 588600); type: functional
T4 sequence (Q9BQF6 whole entry): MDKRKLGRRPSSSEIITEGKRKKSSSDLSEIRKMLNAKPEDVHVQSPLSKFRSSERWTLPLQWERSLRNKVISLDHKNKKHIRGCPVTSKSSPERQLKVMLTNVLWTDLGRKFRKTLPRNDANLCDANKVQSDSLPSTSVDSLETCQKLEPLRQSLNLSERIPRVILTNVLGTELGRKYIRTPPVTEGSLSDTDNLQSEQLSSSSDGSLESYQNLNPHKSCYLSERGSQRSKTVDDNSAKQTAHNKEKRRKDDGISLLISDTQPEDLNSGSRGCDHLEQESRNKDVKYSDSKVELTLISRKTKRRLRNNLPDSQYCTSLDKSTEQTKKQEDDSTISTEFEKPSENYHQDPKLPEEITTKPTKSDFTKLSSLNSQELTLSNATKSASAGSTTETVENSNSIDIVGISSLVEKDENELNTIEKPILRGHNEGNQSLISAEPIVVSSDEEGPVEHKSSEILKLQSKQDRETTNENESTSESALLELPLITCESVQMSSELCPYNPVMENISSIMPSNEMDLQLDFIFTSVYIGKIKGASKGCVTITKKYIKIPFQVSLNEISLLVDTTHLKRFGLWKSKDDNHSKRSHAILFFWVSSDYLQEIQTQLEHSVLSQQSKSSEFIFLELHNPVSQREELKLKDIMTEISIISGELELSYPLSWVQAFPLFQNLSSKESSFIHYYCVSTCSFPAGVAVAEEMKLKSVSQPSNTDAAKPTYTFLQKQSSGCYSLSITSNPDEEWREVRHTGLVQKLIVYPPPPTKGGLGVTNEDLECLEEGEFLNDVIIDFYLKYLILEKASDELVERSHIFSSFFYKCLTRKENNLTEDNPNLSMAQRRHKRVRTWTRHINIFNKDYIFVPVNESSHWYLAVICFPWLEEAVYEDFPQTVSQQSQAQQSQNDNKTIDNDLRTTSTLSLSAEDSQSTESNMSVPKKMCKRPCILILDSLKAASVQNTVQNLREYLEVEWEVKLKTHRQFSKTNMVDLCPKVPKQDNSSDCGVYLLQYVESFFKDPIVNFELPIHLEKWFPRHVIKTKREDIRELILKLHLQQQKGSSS

[5] = biological target: T4, Sentrin-specific protease 7; assay: inhibition of human SENP7 cleavage activity – biochemical, luminescence, SAR follow-up (AID 504497); type: functional
[6] = biological target: T2, Sentrin-specific protease 6; assay: SAR Analysis of small molecule inhibitors of Sentrin-specific protease 6 (SENP6) using a Luminescent assay. [Related pubchem assays (depositor defined):AID2582, AID2599]; type: functional
[7] = biological target: T3, Sentrin-specific protease 8; assay: inhibition of sentrin protease 8 – biochemical, luminescence, set 2, SAR follow-up (AID 588601); type: functional
[8] = biological target: T1, Caspase-3; assay: SAR Analysis of small molecule inhibitors of Sentrin-specific proteases (SENPs) using a Caspase-3 Selectivity assay. [Related pubchem assays (depositor defined):AID2540, AID2599, AID434973, AID489001]; type: functional
[9] = system: HEK293; assay: membrane integrity loss in HEK cells – cell-based, fluorescence, cytotoxicity control for IDE activator project, dose response (AID 588440); type: functional; settings: Homo sapiens;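 further: cytotoxicity by LDH release measuring loss of membrane integrity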
[10] = system: HEK293; assay: optical interference in Abeta FP readout, dose response, artefact control for IDE activator project, biochemical, fluorescence polarization (AID 588442); type: functional, cell-based; settings: Homo sapiens
[11] = biological target: T5, Insulin-degrading enzyme (Homo sapiens, UniProt P14735); assay: cellular IDE activation of Abeta substrate cleavage – fluorescence polarization, HEK cells, dose response (AID 588439); type: functional, cell-based
T5 sequence (P14735 whole entry): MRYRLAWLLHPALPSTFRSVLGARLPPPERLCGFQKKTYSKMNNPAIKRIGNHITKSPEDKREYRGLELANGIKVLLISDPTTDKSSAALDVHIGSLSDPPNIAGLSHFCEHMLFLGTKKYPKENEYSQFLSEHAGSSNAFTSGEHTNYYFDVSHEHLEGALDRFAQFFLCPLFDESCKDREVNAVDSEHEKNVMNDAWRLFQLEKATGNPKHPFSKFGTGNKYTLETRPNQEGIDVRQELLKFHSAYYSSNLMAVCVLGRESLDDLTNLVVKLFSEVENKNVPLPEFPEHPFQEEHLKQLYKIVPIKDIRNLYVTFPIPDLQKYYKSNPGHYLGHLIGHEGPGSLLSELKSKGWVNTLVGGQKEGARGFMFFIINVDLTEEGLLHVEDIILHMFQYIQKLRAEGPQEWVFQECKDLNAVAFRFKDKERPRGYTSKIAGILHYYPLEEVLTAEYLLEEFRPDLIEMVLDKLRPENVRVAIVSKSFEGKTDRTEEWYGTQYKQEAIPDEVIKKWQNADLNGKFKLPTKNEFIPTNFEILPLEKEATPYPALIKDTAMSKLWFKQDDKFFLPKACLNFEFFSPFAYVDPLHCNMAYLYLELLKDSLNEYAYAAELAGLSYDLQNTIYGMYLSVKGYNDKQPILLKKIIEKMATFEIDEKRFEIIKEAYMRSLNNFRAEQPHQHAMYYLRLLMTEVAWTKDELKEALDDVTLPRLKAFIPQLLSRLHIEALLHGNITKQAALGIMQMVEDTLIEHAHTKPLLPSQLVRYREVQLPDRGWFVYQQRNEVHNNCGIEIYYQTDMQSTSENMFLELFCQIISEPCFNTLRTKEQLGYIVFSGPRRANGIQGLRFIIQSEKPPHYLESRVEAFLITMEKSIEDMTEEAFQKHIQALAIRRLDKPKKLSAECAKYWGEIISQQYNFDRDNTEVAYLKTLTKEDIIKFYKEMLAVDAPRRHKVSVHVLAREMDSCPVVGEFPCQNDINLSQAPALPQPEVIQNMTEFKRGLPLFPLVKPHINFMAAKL

[12] = biological target: T5, Insulin-degrading enzyme; assay: recombinant IDE activation, cell-free – biochemical, fluorescence polarization, counter-screen for IDE activator project, dose response (AID 588681)
[13] = biological target: DNA dC->dU-editing enzyme APOBEC-3A (Homo sapiens, UniProt P31941); assay: SAR analysis of small molecule inhibitors of APOBEC3A DNA Deaminase via a fluorescence-based single-stranded DNA deaminase assay.; type: functional; settings: read-out: IC50_Mean
DNA dC->dU-editing enzyme APOBEC-3A, sequence (P31941 whole entry): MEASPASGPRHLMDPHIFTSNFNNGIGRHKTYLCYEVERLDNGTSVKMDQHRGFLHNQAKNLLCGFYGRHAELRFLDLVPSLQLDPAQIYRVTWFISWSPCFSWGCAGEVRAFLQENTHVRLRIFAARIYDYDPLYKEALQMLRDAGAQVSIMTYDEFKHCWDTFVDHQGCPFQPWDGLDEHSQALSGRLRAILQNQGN

[14] = biological target: DNA dC->dU-editing enzyme APOBEC-3G (Homo sapiens, UniProt Q9HC16); assay: inhibition of APOBEC3G ssDNA deamination – biochemical, fluorescence, single-stranded DNA substrate, SAR follow-up (AID 602136); type: functional; settings: read-out: IC50_Mean
DNA dC->dU-editing enzyme APOBEC-3G, sequence (Q9HC16 whole entry): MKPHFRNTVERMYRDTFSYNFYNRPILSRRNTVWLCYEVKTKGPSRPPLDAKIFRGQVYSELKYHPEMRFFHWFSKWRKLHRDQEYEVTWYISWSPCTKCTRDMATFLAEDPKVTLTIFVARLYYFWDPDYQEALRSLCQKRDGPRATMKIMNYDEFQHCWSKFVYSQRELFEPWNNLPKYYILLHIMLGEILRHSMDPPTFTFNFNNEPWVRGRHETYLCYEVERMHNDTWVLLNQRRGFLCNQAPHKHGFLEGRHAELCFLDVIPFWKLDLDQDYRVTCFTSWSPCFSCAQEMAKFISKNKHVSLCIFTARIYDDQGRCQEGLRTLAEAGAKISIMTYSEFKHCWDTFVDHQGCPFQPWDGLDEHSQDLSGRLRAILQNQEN

[15] = biological target: Cytochrome P450 2C9 (Homo sapiens, UniProt P11712)
Cytochrome P450 2C9, sequence (P11712 whole entry): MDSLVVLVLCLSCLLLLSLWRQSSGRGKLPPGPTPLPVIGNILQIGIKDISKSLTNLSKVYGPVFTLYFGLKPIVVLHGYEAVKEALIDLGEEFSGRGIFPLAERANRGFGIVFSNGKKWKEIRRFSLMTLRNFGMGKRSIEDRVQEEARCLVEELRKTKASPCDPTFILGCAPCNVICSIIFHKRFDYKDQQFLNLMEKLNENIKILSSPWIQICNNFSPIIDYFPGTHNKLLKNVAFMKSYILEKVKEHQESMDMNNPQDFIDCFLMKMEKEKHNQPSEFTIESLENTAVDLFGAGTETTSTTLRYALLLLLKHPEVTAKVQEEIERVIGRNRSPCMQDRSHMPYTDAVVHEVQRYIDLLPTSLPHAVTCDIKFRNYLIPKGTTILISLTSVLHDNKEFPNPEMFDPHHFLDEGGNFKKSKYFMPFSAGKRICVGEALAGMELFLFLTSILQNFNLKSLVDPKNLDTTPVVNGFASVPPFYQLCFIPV

[16] = biological target: Cytochrome P450 2C19 (Homo sapiens, UniProt P33261); assay: Cytochrome panel assay with activity outcomes. Panel member name: p450-cyp2c19 Compounds with AC50 equal or less than 10 uM are considered active; type: functional; settings: read-out: AC50
Cytochrome P450 2C19, sequence (P33261 whole entry): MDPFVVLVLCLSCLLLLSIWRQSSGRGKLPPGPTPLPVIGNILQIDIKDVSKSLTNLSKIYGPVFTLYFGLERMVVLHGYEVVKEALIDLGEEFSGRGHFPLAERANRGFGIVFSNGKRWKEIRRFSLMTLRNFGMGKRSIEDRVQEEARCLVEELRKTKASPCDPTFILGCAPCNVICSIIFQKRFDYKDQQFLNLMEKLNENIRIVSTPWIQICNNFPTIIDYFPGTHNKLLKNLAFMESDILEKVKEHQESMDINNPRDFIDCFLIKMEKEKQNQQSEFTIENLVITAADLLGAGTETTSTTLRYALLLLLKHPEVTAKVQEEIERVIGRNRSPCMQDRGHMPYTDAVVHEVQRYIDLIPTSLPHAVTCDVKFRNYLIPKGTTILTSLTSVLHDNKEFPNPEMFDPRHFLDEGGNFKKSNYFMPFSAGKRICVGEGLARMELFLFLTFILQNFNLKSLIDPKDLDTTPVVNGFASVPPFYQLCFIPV

[17] = biological target: Cytochrome P450 2D6 (Homo sapiens, UniProt P10635);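 further: CYP2D6 member of a cytochrome P450 panel assay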
Cytochrome P450 2D6, sequence (P10635 whole entry): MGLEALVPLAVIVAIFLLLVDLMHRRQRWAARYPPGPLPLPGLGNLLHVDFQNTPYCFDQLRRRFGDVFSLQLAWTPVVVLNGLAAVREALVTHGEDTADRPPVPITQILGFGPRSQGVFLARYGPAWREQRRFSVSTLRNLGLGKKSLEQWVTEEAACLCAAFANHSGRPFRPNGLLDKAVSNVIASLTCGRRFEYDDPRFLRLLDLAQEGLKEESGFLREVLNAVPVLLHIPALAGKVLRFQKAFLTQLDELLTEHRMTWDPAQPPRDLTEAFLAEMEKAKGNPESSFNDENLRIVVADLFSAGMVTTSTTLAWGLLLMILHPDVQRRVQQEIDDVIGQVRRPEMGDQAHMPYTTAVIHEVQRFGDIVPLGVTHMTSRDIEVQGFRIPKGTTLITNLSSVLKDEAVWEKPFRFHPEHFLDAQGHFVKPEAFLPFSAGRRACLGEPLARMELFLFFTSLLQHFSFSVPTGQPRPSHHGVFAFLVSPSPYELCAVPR

IC50 [1]	IC50 [2]	IC50 [4]	Compound	IC50 [7]	IC50 [9]	EC50 [10]	EC50 [11]	EC50 [12]	IC50 [13]	IC50 [14]	other results
0.465 µM (active)	0.652 µM (active)	0.558 µM (active)	Cn1cccc1C(=O)Nc1nc2ccc(Cl)cc2s1	0.619 µM (active)	–	–	–	–	–	–	IC50 [3]: 0.52 µM (active); IC50 [5]: 0.49 µM (active); IC50 [6]: 0.54 µM (active); IC50 [8]: 0.42 µM (active)
> 99 µM (inactive)	> 99 µM (inactive)	> 99 µM (inactive)	CCN1CCN(CCCNC(=O)C(=O)c2c[nH]c3ccccc23)CC1	> 99 µM (inactive)	–	–	–	–	–	–	–
–	–	–	C1CCCCCC(=NNc2nn[nH]n2)CCCCC1	–	> 89.2 µM (inactive)	> 56 µM (inactive)	> 54.7 µM (inactive)	> 54.7 µM (inactive)	–	–	–
–	–	–	Cc1cc(C(=O)Cn2ccccc2=O)c(C)n1Cc1ccccc1	–	–	–	–	–	> 99 µM (inactive)	> 99 µM (inactive)	–
–	–	–	O=C(Nc1ccc(-c2nc3ccccc3o2)cc1)c1ccc2c(c1)OCO2	–	> 9.91 µM (active)	> 55.9 µM (inactive)	> 54.7 µM (inactive)	> 54.7 µM (inactive)	–	–	–
–	–	–	C=CCSc1nnc(-c2cc3c(C(F)(F)F)nn(C)c3s2)n1C	–	–	–	–	–	> 99 µM (inactive)	70.8 µM (inactive)	AC50 [15]: inconclusive; AC50 [16]: 3.55 µM (inconclusive); AC50 [17]: 17.8 µM (inconclusive)
